From patent US20150175655A1 (priority 2012, published 2015) come the findings set out here.

pEC50, pKi: −log10 of the molar value. Like-named read-outs stand apart in the source and are kept apart here.

For series [1] the following is noted: rcm bond, Zhan 1B, DCE.
For series [2], the system named is genotype 1a stable HCV replicon (H77 strain) in Huh-7-derived cells. The series is described as follows: Stable subgenomic HCV replicon EC50, genotype 1a (Renilla luciferase). The following applies: Hepatitis C virus, stable replicon genotype 1a, 72 h, read-out: EC50 1A RLUC. The format is cell-based. As for the experimental part: (§1) Antiviral potency (EC50) was determined in both stable subgenomic HCV replicon cell lines and transient-transfected HCV replicon cells. The term half maximal effective concentration (EC50) refers to the concentration of a drug which induces a response halfway between the baseline and maximum after the exposure time specified below.
(§2) Stable subgenomic HCV replicons for genotype 1a, 1 b, 2a, 3a, and 4a were established in Huh-7-derived cells as described by Lohmann et al (Lohmann V, Korner F, Koch J, et al Replication of subgenomic hepatitis C virus RNAs in a hepatoma cell line. Science 1999; 285:119-3). Each stable cell line contains a bicistronic HCV replicon that encodes a humanized Renilla luciferase (hRLuc) reporter gene fused to a selectable neomycin-resistance gene, followed by an EMCV IRES and the NS3-NS5B coding region of HCV. […] Luciferase activity was measured as a marker for intracellular HCV replication levels.
(§3) The genotype 1a stable replicon was derived from the H77 HCV strain and contained adaptive mutations P1496L and S2204I. The genotype 1 b stable replicon was derived from the Cont HCV strain and contained adaptive mutations E1202G, T1280I, and K1846T. […] The genotype 3a stable replicon was derived from the S52 HCV strain and contained adaptive mutations P1121 L, A1198T and S2210I (equivalent to S2204I in genotype 1). The genotype 4a stable replicon was derived from the ED43 HCV strain and contained adaptive mutations Q1691R and S2204I. All replicon cell lines were propagated in Huh-7-derived cells and maintained in Dulbecco's modified Eagle's Medium (DMEM) supplemented with 10% fetal bovine serum (FBS) and 0.5 mg/mL G418.
(§4) To perform EC50 assays, cells from each HCV replicon were dispensed into 384-well plates. Compounds were dissolved in DMSO at a concentration of 10 mM and diluted in DMSO using an automated pipetting instrument. Three-fold serially diluted compounds were directly added to the cells using an automated instrument. […] Seventy-two hours later, cells were lysed and Renilla luciferase activity were quantified as recommended by the manufacturer (Promega-Madison, Wis.). Non-linear regression was performed to calculate EC50 values.

In series [3] the test system is genotype 1b stable HCV replicon in Huh-7-derived cells. The series is described as follows: Stable subgenomic HCV replicon EC50, genotype 1b (Renilla luciferase). The format is cell-based. The following applies: Hepatitis C virus, stable replicon genotype 1b, 72 h, read-out: EC50 1B RLUC. As for the experimental part: as §1, §2, §3, §4
For series [4], the system named is genotype 2a stable HCV replicon (JFH-1 strain) in Huh-7-derived cells. The series is described as follows: Stable subgenomic HCV replicon EC50, genotype 2a (Renilla luciferase). The format is cell-based. To be noted: Hepatitis C virus, stable replicon genotype 2a, 72 h, read-out: EC50 2A RLUC. Here is the method: as §1, §2, §3, §4
(In general: A replicon is a self-replicating genome or part of one, used to study replication in cells.)

The test system of series [5] is genotype 3a stable HCV replicon (S52 strain) in Huh-7-derived cells. In words: Stable subgenomic HCV replicon EC50, genotype 3a (Renilla luciferase). To be noted: Hepatitis C virus, 72 h, read-out: EC50 3A RLUC. The class given is cell-based. Here is the method: as §1, §2, §3, §4
Series [6] relates to genotype 4a stable HCV replicon (ED43 strain) in Huh-7-derived cells. In words: Stable subgenomic HCV replicon EC50, genotype 4a (Renilla luciferase). The class given is cell-based. The following applies: Hepatitis C virus, 72 h, read-out: EC50 4A RLUC. As for the experimental part: as §1, §2, §3, §4
For series [7], the system named is genotype 1a (H77) wild-type transient HCV replicon in Huh-7-derived cells. The series is described as follows: Transient-transfected HCV replicon EC50, genotype 1a wild type. The format is cell-based. To be noted: Hepatitis C virus; transient-transfected replicon genotype 1a wild type, 72 h; read-out: EC50 1A WT.
The subject of series [8] is genotype 1a transient HCV replicon, NS3/4a protease inhibitor resistant variant R155K, in Huh-7-derived cells. The series is described as follows: Transient-transfected HCV replicon EC50, genotype 1a R155K. The format is cell-based. To be noted: Hepatitis C virus, 72 h, read-out: EC50 1A R155K.
Series [9] deals with genotype 1b (Con1) wild-type transient HCV replicon in Huh-7-derived cells. The series is described as follows: Transient-transfected HCV replicon EC50, genotype 1b wild type. The format is cell-based. To be noted: Hepatitis C virus; transient-transfected replicon genotype 1b wild type, 72 h; read-out: EC50 1B WT.
The subject of series [10] is genotype 1b transient HCV replicon, NS3/4a protease inhibitor resistant variant D168A, in Huh-7-derived cells. The series is described as follows: Transient-transfected HCV replicon EC50, genotype 1b D168A. To be noted: Hepatitis C virus, 72 h, read-out: EC50 1B D168A. The format is cell-based.
Another series deals with T1, NS3 genotype 1b protease (Hepatitis C virus genotype 1b, UniProt Q9WMX2, E1202G).
T1 construct: Purified NS3 protease domain (amino acids 1-181) of the genotype 1b and 3a virus were generated as above; K3 hexahistidine tag (N); rTEV protease cleavage site (N); made in house; host or cells: E. coli BL21AI, pET28 vector p28-N6H-Tev-NS3(181)1b
The series is described as follows: Ki determination, NS3 protease genotype 1b (fluorogenic depsipeptide substrate). The format is biochemical. In outline:
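The His-tagged HCV NS3 protease domain (residues 1-181, genotype 1b con-1) was expressed in E. coli, and 50 pM enzyme with 20 μM NS4A peptide was used. Inhibitor (100 nM to 5 pM, 3-fold steps) was pre-incubated 1 h at room temperature in 50 mM HEPES, 40% glycerol, 0.05% Triton X-100, 10 mM DTT, 10% DMSO. The reaction was started with 4 μM fluorogenic substrate, and fluorescence (ex 340/em 490 nm) was read every 30 s between 90 and 120 min. Ki^app came from fitting rates with the Morrison equation.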

Series [11] relates to genotype 3a transient HCV replicon (S52 strain) in Huh-7-derived cells. The series is described as follows: Transient-transfected HCV replicon EC50, genotype 3a wild type. The class given is cell-based. The following applies: Hepatitis C virus; transient-transfected replicon genotype 3a wild type, 72 h; read-out: EC50 3A WT.

`CCC[C@@H]1[C@@H]2CN(C(=O)[C@H](C(C)(C)C)NC(=O)O[C@@H]3C[C@H]3CCCC=Cc3nc4ccc(OC)cc4nc3O2)[C@@H]1C(=O)OC(C)(C)C` registered a ring closure, yield of all isomers in series [1] (from C=CCCC[C@@H]1C[C@H]1OC(=O)N[C@H](C(=O)N1C[C@H](Oc2nc3cc(OC)ccc3nc2C=C)[C@@H](CCC)[C@H]1C(=O)OC(C)(C)C)C(C)(C)C, 5.0 mM, 100.0 °C, 1.0 h) of 80.7%.

With `COC(=O)[C@@H]1[C@H](C2CC2)[C@@H]2CN1C(=O)[C@H](C(C)(C)C)NC(=O)O[C@@H]1C[C@H]1CCCC=Cc1nc3ccc(OC)cc3nc1O2`, the ring closure, yield of all isomers in series [1] (from C=CCCC[C@@H]1C[C@H]1OC(=O)N[C@H](C(=O)N1C[C@H](Oc2nc3cc(OC)ccc3nc2C=C)[C@@H](C2CC2)[C@H]1C(=O)OC)C(C)(C)C, 4.96 mM, 83.0 °C, 0.83 h) stood at 39%.

In the case of `COc1ccc2nc3c(nc2c1)O[C@H]1CN(C(=O)[C@H](C2(C)CCCC2)NC(=O)O[C@@H]2C[C@H]2CCCC=C3)[C@H](C(=O)OC(C)(C)C)[C@@H]1C`, the ring closure, yield of all isomers in [1] (from C=CCCC[C@@H]1C[C@H]1OC(=O)N[C@H](C(=O)N1C[C@H](Oc2nc3cc(OC)ccc3nc2C=C)[C@@H](C)[C@H]1C(=O)OC(C)(C)C)C1(C)CCCC1, 5.03 mM, 83.0 °C, […]) is 78%.

As to `CC[C@@H]1[C@@H]2CN(C(=O)[C@H](C(C)(C)C)NC(=O)O[C@]3(C(F)(F)F)CCC[C@H]3CCCCCc3nc4ccc(OC)cc4nc3O2)[C@@H]1C(=O)N[C@]1(C(=O)NS(=O)(=O)C2CC2)C[C@H]1C(F)F` [Example 11, (7S,10S,11S,12R)-7-tert-butyl-N-[(1R,2R)-1-[(cyclopropylsulfonyl)carbamoyl]-2-(difluoromethyl)cyclopropyl]-11-ethyl-16-methoxy-5,8-dioxo-3aR-(trifluoromethyl)-1,2,3,3a,5,6,7,8,11,12,20,21,22,23,24,24a-hexadecahydro-10H-9,12-methanocyclopenta[18,19][1,10,3,6]dioxadiazacyclononadecino[11,12-b]quinoxaline-10-carboxamide], the negative logarithm of the EC50 (pEC50) (as a rule, the negative decadic logarithm of the EC50, by convention in mol/L) in [2] is 7.55; in series [3], 7.77; in series [4], 7.47; in [5], 5.93; in series [6], 7.72; in [7] it was 7.70. The pEC50 is 6.80 in series [8], 8.03 in [9] and 6.22 in series [10].

With `CC[C@@H]1[C@@H]2CN(C(=O)[C@H](C(C)(C)C)NC(=O)O[C@@]3(C(F)(F)F)CCC[C@H]3CCCCCc3nc4ccc(OC)cc4nc3O2)[C@@H]1C(=O)N[C@]1(C(=O)NS(=O)(=O)C2CC2)C[C@H]1C(F)F` [Example 12, (7S,10S,11S,12R)-7-tert-butyl-N-[(1R,2R)-1-[(cyclopropylsulfonyl)carbamoyl]-2-(difluoromethyl)cyclopropyl]-11-ethyl-16-methoxy-5,8-dioxo-3a5-(trifluoromethyl)-1,2,3,3a,5,6,7,8,11,12,20,21,22,23,24,24a-hexadecahydro-10H-9,12-methanocyclopenta[18,19][1,10,3,6]dioxadiazacyclononadecino[11,12-b]quinoxaline-10-carboxamide], the pEC50 is 7.47 in [2]; 7.74 in series [3]; 7.60 in series [4]; 5.70 in series [5]; 7.68 in series [6]; 7.85 in series [7]. The pEC50 in series [8] was 6.55; in series [9] it was 8.24; in series [10] it was 6.19.

In the case of `COc1ccc2nc3c(nc2c1)O[C@H]1CN(C(=O)[C@H](C(C)(C)C)NC(=O)O[C@@H]2C[C@H]2CCCCC3)[C@H](C(=O)N[C@]2(C(=O)NS(=O)(=O)C3(C)CC3)C[C@H]2C(F)F)[C@@H]1C1CC1` [Example 31, (1aR,5S,8S,9S,10R,22aR)-5-tert-butyl-9-cyclopropyl-N-[(1R,2R)-2-(difluoromethyl)-1-{[(1-methylcyclopropyl)sulfonyl]carbamoyl}cyclopropyl]-14-methoxy-3,6-dioxo-1,1a,3,4,5,6,9,10,18,19,20,21,22,22a-tetradecahydro-8H-7,10-methanocyclopropa[18,19][1,10,3,6]dioxadiazacyclononadecino[11,12-b]quinoxaline-8-carboxamide], on NS3 genotype 1b protease, the pKi (in general, the Ki on a negative log10 scale, so that one unit is a factor of ten) is 9.89. The negative-log EC50 (pEC50) in [2] was 7.40; in series [3], 7.74; in series [4], 7.20; in series [5], 5.68; in series [6] it was 7.70; in series [7], 7.57. Moreover, the negative logarithm of the EC50 (pEC50) in [8] is 6.81; in series [9] it was 8.18; in series [10], 6.09.

For the compound `COc1ccc2nc3c(nc2c1)O[C@H]1CN(C(=O)[C@H](C(C)(C)C)NC(=O)O[C@@H]2CCN(C(C)=O)C2CCCCC3)[C@H](C(=O)N[C@]2(C(=O)NS(=O)(=O)C3(C)CC3)C[C@H]2C(F)F)[C@@H]1C` (stereo partly drawn) [Example 80, (3aR,7S,10S,11S,12R)-1-acetyl-7-tert-butyl-N-[(1R,2R)-2-(difluoromethyl)-1-{[(1-methylcyclopropyl)sulfonyl]carbamoyl}cyclopropyl]-16-methoxy-11-methyl-5,8-dioxo-1,2,3,3a,5,6,7,8,11,12,20,21,22,23,24,24a-hexadecahydro-10H-9,12-methanopyrrolo[2′,3′:18,19][1,10,3,6]dioxadiazacyclononadecino[11,12-b]quinoxaline-10-carboxamide], the pEC50 in series [5] was ≤ 4.35.

Turning to `C=C[C@@H]1C[C@]1(NC(=O)[C@@H]1[C@H](CC)[C@@H]2CN1C(=O)[C@H](C(C)(C)C)NC(=O)O[C@@H]1C[C@H]1CCCCC(F)(F)c1nc3ccc(OC)cc3nc1O2)C(=O)NS(=O)(=O)C1CC1` [Example 92, (1aR,5S,8S,9S,10R,22aR)-5-tert-butyl-N-{(1R,2S)-1-[(cyclopropylsulfonyl)carbamoyl]-2-ethenylcyclopropyl}-9-ethyl-18,18-difluoro-14-methoxy-3,6-dioxo-1,1a,3,4,5,6,9,10,18,19,20,21,22,22a-tetradecahydro-8H-7,10-methanocyclopropa[18,19][1,10,3,6]dioxadiazacyclononadecino[11,12-b]quinoxaline-8-carboxamide], the pEC50 in series [2] is 8.48; in series [3], 8.49; in series [4] it was 8.34; in [11], 8.10; in series [7] it was 8.52; in [8], 8.52. Besides, in [9], the pEC50 is 8.77.
